From patent US10017463B2, “Inhibitors of deubiquitinating proteases” (Brandeis University, priority 2014, dated 2018) come the findings set out here.

In test [1] the target is T1, USP9x (Homo sapiens, UniProt Q93008).
T1 construct: Lysate labeling assay on untransfected cells; endogenous in cells; host or cells: K562
Kind of test: HA-Ubiquitin-Vinylsulfone activity profiling in K562 lysates. It counts as biochemical. As for the experimental part: Panel B is an image of an immunoblot showing the titration of TCM23 and TCM28 in K562 lysates. Panel C is a plot showing the quantitation of band corresponding to USP9x in panel B. Panel D is an image of an immunoblot showing the titration of WP1130 in K562 lysates. Panel E is a plot showing the quantification of the efficacy of ITCs for the inhibition of USP9x in K562 lysates (see also Table 2).
[…] After this time HA-Ub-VS (1.5 μM) was added and incubated for 15 min. After this time reaction mixture (15 μL) was removed and quenched in 2× (final concentration) reducing Laemeli buffer. The reaction mixtures were heated to 37° C. for 10 min prior to analysis by western blot for HA.

Test [2] addresses T2, USP9x (Mus musculus, UniProt P70398).
T2 construct: endogenous in cells; host or cells: BaF3
Kind of test: Cy5-Ub-VME profiling of BaF3 lysates. It is filed as biochemical, murine. To be noted: BaF3 lysate, approximately 22 bands. As for the experimental part: Panel A is an image of an immunoblot showing representative scans of lysates treated with compound for 15 min then Cy5-Ub-VME. Panel B is a plot of the bands in each lane using Image J processing and analysis software.
Using Image J, the individual lanes from the lysates were plotted as a function of TU50 concentration.

Test [3] deals with purified recombinant USP9x (Homo sapiens, UniProt Q93008). Kind of test: Purified recombinant USP9x, Cy5-Ub-VME activity profiling. It counts as biochemical. The conditions noted are these: for inhibition of USP9x in presence of USP7CD: at 12.5 μM; for fluorescent signal of USP9x-(Cy5-Ub-VME) complex: preincubation at 50 or 25 μM. As for the experimental part: Panel A is an image showing that purified recombinant USP9x (7 nM) was treated with the stated compound at 50 μM for 19 min prior to addition of Cy5-Ub-VME for 5 min, then the mixture was resolved by S.D.S-PAGE and analyzed on a typhoon imager. Panel B is an image of an immunoblot showing purified recombinant USP9x (7 nM) and USP7CD (20 nM) were treated with the stated compound at the stated concentration for 19 min prior to addition of Cy5-Ub-VME for 5 min then the mixture was resolved by S.D.S-PAGE and analyzed on a Typhoon imager.
purified recombinant USP9x, sequence (Q93008 whole entry, species assumed): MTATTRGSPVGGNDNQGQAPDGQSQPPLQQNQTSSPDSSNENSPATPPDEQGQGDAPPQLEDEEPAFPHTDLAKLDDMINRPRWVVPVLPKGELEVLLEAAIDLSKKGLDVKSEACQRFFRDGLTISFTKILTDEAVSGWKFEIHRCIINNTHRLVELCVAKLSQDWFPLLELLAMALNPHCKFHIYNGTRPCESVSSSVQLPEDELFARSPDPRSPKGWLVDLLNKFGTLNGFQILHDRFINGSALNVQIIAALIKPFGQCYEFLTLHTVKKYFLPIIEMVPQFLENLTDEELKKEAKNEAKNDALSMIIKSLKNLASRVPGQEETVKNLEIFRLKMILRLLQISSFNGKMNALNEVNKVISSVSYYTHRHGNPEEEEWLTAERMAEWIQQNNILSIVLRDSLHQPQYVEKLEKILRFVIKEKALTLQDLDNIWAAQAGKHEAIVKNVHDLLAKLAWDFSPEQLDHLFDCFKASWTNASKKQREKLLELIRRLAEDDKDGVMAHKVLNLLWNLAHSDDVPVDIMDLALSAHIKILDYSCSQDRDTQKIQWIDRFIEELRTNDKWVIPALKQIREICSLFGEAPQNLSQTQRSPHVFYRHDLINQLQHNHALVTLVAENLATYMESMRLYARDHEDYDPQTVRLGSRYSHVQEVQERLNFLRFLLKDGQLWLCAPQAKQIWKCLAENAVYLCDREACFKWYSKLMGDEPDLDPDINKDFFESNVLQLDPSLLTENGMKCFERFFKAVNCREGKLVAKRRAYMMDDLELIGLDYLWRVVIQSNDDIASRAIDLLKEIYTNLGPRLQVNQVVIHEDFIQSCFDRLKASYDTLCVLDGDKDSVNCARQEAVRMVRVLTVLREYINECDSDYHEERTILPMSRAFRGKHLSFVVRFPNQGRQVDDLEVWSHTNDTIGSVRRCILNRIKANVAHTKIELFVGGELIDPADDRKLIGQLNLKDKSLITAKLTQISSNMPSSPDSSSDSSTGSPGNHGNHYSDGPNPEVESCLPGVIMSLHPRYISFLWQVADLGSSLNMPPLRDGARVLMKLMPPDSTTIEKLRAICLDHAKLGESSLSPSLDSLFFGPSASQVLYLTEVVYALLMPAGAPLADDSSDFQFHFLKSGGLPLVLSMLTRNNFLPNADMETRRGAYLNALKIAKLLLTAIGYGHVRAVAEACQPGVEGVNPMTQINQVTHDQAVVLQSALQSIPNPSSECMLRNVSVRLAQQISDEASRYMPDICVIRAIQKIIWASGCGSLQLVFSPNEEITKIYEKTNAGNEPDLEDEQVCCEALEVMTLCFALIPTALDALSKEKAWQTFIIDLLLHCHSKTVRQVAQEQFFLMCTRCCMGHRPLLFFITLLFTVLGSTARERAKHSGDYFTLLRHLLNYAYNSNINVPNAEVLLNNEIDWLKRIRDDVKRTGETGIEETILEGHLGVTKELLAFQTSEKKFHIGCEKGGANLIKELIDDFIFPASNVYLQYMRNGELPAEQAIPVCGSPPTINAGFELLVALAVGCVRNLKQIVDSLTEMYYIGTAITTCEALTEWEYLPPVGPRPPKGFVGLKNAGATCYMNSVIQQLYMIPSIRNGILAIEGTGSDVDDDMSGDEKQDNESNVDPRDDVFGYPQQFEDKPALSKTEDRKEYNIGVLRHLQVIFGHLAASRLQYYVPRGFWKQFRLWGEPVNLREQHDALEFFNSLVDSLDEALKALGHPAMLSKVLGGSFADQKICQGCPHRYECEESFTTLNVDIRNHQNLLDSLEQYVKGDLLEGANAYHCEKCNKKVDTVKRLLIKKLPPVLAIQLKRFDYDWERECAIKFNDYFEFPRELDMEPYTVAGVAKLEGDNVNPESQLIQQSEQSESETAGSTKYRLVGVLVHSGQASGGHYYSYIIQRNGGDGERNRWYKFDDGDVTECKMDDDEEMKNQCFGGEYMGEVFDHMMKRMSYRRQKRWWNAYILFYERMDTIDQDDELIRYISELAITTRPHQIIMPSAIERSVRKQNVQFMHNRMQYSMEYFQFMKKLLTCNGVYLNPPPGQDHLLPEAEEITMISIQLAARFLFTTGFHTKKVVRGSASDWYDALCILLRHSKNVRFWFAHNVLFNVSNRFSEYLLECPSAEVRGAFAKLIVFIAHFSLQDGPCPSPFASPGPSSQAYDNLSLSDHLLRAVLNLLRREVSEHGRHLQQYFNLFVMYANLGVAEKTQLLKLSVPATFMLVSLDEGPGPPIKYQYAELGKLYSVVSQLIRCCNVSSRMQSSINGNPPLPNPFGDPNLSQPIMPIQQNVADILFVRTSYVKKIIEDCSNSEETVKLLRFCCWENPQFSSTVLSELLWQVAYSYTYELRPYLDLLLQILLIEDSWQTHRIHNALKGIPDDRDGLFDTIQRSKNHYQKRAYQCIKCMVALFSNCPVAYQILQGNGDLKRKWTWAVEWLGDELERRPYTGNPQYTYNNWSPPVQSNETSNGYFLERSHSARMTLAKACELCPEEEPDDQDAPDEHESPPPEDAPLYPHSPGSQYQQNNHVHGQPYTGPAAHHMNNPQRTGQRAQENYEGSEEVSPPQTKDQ

The next test has as its system HeLa cells. Kind of test: Annexin V-FITC/PI apoptosis assay, HeLa. It is filed as cell-based. To be noted: 15 or 30 μM, 24 h. On the procedure:
(each point is shown as mean+/−s.d. of 2 replicates). Panel A is a bar graph showing the data for HeLa cells (30 μM); Panel B is a bar graph showing the data for K562 (30 μM); Panel C is a bar graph showing the data for K562 (15 μM).
Since K562 cells are dependent upon Bcr-Abl for survival, it was predicted that these cells would also be susceptible to TU compounds. However, K562 cells gave a very weak signal in the Alamar Blue® assay. In lieu of the Alamar Blue assay, an apoptosis assay was used to show susceptibility. This assay uses fluorescein-modified Annexin V to detect phosphatidyl serine (PS) on the cell surface. See Vermes et al., J. Immon. Meth. 184, 39-51 (1995). PS is typically expressed on the inner leaflet of the cell membrane. However in the early stages of apoptosis, PS translocates to the outer leaflet and can be bound by Annexin V. Thus, during apoptosis cells will become greener in the presence of Annexin V-Fluorescine.

Another test relates to Bcr-Abl. Put plainly: Bcr-Abl immunoblot in K562 cells. It counts as cell-based. To be noted: for decrease in Bcr-Abl: 30 μM, 4 h. On the procedure:
After this time cells were lysed and sonicated in SDS. Whole cell lysates were analyzed for Bcr-Abl and tubulin in triplicate. Panel B is a bar graph showing the quantitation of the blots in Panel A. Panel C is a plot showing differing concentrations of TU50 were added to K562 cells and after 4 h the amount of Bcr-Abl was measured in whole cell lysates.

Another test deals with DUBs. Put plainly: Cy5-Ub-VME activity profiling of treated BaF3/p210 cells. The conditions noted are these: 50 μM, 4 h. It is filed as cell-based, murine. On the procedure:
(§1) FIG. 9 has two panels (A and B) depicting data showing that TUs inhibit DUBs in cells. BaF3/p210 cells were incubated with the stated concentration of compound for 4 h. After this time cells were lysed using beads, lysates were normalized, then exposed to Cy5-Ub-VME for 5 min. After quenching, lysates were resolved by SDS-PAGE, analyzed on typhoon, then stained by Coomassie. Panel A is an image of the SDS-PAGE gel visualized via Typhoon imager. Panel B is an image of the SDS PAGE gel stained with Coomassie.
Panel A is the chemical structure of TU71. Panel B is an image of an immunoblot showing a K562 cell was treated with TU71 for 15 min at which time HAUb-VS was added. After an additional 15 min, aliquots were quenched in reducing loading buffer and analyzed by SDS-PAGE and HA blot. […] BaF3/p21 0 cells were treated with TU71 for 2.5 h (Panel C) or 4 h (Panel D). Cells were harvested, lysed and incubated (0.7 mg/mL protein) with 250 nM Cy5-UbVME for 5 min at 37° C. […] Panel E is an image of an immunoblot showing BaF3/p210 cells were incubated with TU71 for 4 h. The cells were harvested, lysed, analyzed by SDS-PAGE and immunoblotted as indicated. “cPARP” indicates the caspase cleavage of product of PARP and is indicative of apoptosis. Panel F is a bar graph showing data representative of mean±range of two independent experiments, one performed in duplicate of the blot depicted in Panel E.
(§2) The increased promiscuity of the inhibitors when the experiment is carried out in cells likely stems from the increased assay time (4 h vs 20 min) coupled with the slow on rates of the inhibitors and their targets.

The target of another test is T3, UCHL3 (Mus musculus, UniProt Q9JKB1).
T3 construct: endogenous in cells; host or cells: BaF3/p210
T3 sequence (Q9JKB1 1-230): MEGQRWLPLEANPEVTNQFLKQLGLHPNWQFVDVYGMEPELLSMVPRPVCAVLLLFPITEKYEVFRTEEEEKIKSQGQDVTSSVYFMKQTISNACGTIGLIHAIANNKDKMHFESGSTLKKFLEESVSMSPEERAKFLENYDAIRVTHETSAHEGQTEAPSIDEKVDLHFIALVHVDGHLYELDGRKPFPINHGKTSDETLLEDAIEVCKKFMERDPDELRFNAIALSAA
Put plainly: Cy5-Ub-VME activity profiling of treated BaF3/p210 cells, UCHL3. To be noted: 50 μM, 4 h. It counts as cell-based, murine. As for the experimental part:
as §1, §2

Another test deals with BaF3 parent. Put plainly: Growth inhibition assay, BaF3 parent. It counts as cell-based. To be noted: at higher concentrations than BaF3/p210. An excerpt:
MCL1 is required to sustain growth of many transformed cells and is also regulated by USP9x. […] These findings help to explain why these compounds are toxic to Bcr-Abl independent cancer lines, especially BaF3.

[4] abbreviates: HA-Ub-VS profiling, values in text, read-out: EC50 for USP9x.
The mark [5] stands for this setting: inhibition of USP9x in K562 lysates, data from FIG. 1, read-out: EC50.

Where two headings read alike, the source gives them in different places.

T1 sequence (Q93008 whole entry): as the sequence (Q93008 whole entry, species assumed) above
T2 sequence (P70398 whole entry): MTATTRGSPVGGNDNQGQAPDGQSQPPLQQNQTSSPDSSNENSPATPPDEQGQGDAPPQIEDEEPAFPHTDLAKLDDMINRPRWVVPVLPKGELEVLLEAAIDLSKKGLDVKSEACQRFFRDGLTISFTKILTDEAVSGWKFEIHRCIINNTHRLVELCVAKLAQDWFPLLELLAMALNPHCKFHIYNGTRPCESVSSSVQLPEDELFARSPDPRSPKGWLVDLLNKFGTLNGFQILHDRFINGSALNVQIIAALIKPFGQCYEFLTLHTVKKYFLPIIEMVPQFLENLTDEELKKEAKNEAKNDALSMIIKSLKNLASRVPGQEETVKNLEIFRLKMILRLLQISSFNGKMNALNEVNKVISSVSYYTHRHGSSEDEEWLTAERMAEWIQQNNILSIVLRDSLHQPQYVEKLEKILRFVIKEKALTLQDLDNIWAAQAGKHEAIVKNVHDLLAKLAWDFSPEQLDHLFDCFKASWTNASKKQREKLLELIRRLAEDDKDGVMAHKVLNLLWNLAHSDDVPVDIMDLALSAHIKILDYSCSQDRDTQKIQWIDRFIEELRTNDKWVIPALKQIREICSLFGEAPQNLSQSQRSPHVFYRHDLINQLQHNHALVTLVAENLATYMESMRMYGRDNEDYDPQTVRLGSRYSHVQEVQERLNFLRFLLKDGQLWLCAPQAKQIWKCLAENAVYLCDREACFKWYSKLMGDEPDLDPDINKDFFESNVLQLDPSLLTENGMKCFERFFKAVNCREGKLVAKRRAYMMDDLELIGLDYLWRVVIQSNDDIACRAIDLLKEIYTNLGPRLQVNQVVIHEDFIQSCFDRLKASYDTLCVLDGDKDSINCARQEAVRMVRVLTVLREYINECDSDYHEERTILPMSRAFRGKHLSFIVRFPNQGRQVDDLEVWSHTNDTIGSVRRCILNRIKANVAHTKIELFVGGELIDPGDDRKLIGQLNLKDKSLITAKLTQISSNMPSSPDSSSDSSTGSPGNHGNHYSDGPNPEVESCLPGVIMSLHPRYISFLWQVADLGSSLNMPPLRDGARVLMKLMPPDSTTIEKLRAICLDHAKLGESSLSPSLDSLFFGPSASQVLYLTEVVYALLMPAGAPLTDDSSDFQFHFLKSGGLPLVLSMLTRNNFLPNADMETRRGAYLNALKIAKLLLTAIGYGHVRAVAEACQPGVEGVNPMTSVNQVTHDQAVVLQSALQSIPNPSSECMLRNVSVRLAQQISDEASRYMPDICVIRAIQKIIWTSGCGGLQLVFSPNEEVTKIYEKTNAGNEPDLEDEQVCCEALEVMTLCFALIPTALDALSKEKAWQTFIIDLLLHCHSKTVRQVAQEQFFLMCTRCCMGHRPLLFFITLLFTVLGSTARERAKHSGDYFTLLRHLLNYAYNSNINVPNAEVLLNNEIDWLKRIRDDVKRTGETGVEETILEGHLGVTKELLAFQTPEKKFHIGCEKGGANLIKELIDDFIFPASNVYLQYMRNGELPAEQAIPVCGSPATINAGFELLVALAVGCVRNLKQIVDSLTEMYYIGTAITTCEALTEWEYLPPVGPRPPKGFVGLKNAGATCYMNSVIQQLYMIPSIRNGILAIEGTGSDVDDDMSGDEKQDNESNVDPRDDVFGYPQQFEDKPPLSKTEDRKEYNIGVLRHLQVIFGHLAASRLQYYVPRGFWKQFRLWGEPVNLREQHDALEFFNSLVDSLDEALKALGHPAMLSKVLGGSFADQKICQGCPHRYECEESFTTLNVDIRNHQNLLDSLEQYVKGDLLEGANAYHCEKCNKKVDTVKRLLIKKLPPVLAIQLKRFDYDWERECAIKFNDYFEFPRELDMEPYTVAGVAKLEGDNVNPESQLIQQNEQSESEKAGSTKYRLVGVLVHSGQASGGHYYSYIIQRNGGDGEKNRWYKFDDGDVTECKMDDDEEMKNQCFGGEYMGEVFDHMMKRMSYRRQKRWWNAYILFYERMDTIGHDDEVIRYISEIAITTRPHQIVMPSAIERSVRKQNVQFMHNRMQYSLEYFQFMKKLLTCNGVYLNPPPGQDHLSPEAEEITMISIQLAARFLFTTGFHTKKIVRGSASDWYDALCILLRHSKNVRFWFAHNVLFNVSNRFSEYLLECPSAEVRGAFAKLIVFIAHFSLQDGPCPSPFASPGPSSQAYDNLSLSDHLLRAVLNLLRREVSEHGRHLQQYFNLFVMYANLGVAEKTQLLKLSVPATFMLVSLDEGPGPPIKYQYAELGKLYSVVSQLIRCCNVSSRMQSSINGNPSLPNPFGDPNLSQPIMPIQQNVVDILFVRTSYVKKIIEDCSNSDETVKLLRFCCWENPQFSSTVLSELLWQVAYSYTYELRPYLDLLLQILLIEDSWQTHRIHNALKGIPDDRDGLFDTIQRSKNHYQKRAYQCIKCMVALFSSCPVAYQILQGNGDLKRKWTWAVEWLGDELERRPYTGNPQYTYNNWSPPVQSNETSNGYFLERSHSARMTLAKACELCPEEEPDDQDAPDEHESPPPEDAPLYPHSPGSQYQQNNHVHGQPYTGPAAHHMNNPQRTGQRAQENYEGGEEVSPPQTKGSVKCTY

`CC(C)(C)OC(=O)NCCc1ccc(N=C=S)cc1` [TU46]: on USP9x [1], the “inhibition of USP9x” value is listed as “significant inhibition”. Besides, the EC50 on USP9x [1] (setting [4]) was 6 to 12 µM; at USP9x [1] (setting [5]) it was 12 µM. Moreover, the “selectivity for USP9x among Cy5-Ub-VME reactive bands” value at USP9x [2] is on record as “selective for USP9x”. For the same molecule, the “inhibition of USP9x in presence of USP7CD” value in test [3] is given as “strongly inhibited”. In test [3], the “fluorescent signal of USP9x-(Cy5-Ub-VME) complex” value is “oblation of the fluorescent signal”. In the test with HeLa cells, the “apoptosis in HeLa” value is “no apoptosis was detected”. The “decrease in Bcr-Abl” value in the test on Bcr-Abl is on record as “four-fold decrease”. The “Cy5-Ub-VME labelled bands after treatment of cells” value (“Cy5-Ub-VME labelled bands” below) in the test on DUBs is given as “decrease in a number of bands in addition to the band corresponding to USP9x”. On UCHL3, the “effect on UCHL3” value was “relatively unaffected”. Moreover, the “susceptibility of BaF3 parent (growth inhibition)” value in the test with BaF3 parent is “susceptible”.
`O=C(NCc1ccc(N=C=S)cc1)OCc1ccccc1` [TU49]: in the test on HeLa cells, the “apoptosis in HeLa” value is reported as “no apoptosis was detected”. Further, the “decrease in Bcr-Abl” value in the test with Bcr-Abl is “four-fold decrease”. In addition, the “Cy5-Ub-VME labelled bands” value with DUBs is reported as “decrease in a number of bands in addition to the band corresponding to USP9x”. For the same molecule, the “effect on UCHL3” value on UCHL3 is recorded as “relatively unaffected”.
With `CC(C)(C)OC(=O)NCc1cccc(N=C=S)c1` [TU50], on USP9x [1], the “inhibition of USP9x” value is reported as “significant inhibition”. The EC50 is 6 to 12 µM at USP9x [1] (setting [4]); 9 µM at USP9x [1] (setting [5]); 12 µM with Bcr-Abl (K562, 4 h, read-out: EC50 for Bcr-Abl degradation). In addition, the “selectivity for USP9x among Cy5-Ub-VME reactive bands” value on USP9x [2] is given as “clearly the most affected”. Further, in test [3], the “inhibition of USP9x in presence of USP7CD” value is reported as “strongly inhibited”. For the same molecule, the “fluorescent signal of USP9x-(Cy5-Ub-VME) complex” value in test [3] is “oblation of the fluorescent signal”. The “apoptosis in HeLa” value in the test on HeLa cells is recorded as “no apoptosis was detected”. Moreover, the “decrease in Bcr-Abl” value in the test on Bcr-Abl is “four-fold decrease”. The “Cy5-Ub-VME labelled bands” value with DUBs is “decrease in a number of bands in addition to the band corresponding to USP9x”. Besides, the “effect on UCHL3” value at UCHL3 is recorded as “relatively unaffected”. Besides, in the test on BaF3 parent, the “susceptibility of BaF3 parent (growth inhibition)” value is “susceptible”.
